Measurements from patent US20260191838A1, “COMBINATIONS COMPRISING A MENIN-MLL INHIBITOR AND A BCL-2 INHIBITOR” (JANSSEN PHARMACEUTICA NV, priority 2022, published 2026).

Legend:
MOLM-13 cells = assay: In vitro proliferation (Cell Titer Glo), Compound 51 with decitabine and venetoclax, MOLM-13; assay type: cell-based, human; set-up: key to maxR test call (additive / antagonism / synergy): no asterisk: absence of any asterisk indicates an additive effect; antagonism is indicated by “*”; synergy is indicated by “**”; Effect size (BIGL, HSA null model): scale not given here
Method: (§1) 3a) In Vitro Proliferation—Menin-MLL Inhibitor in Combination with a DNA Hypomethylating Agent (Decitabine) and a BCL2 Inhibitor (Venetoclax)
(§2) The effect of Compound 51 in combination with decitabine and venetoclax was determined in proliferation assays.
(§3) AML cell lines MOLM-13, OCI-AML3 and MV4-11 were purchased from DSMZ. MOLM-13 were grown in RPMI medium supplemented with 10% Fetal Bovine Serum (FBS) and 1% penicillin/streptomycin. MV4-11 cells were grown in IMDM medium supplemented with 10% FBS and 1% penicillin/streptomycin. OCI-AML3 cells were cultured in 80-90% alpha-MEM (without ribo- and deoxyribonucleosides)+10-20% FBS. All cell lines were cultured at 37° C. in 5% CO2 atmosphere.
(§4) AML cell lines (10×10^3 cells/well) were seeded in 96-well plates and grown for 6 days in serum (10%)-containing medium in the presence or absence of inhibitors at the indicated concentrations. Proliferation was analyzed by means of a Cell Titer Glo assay using the CellTiter 96 Aqueous One Solution Cell Proliferation Assay (Promega, Madison, WI, USA), according to the manufacturer's instructions. Data are mean with standard deviation from two to four independent experiments in technical triplicates.
(§5) R-based Biochemically Intuitive Generalized Loewe (BIGL) model implemented with a highest single agent (HSA) null model. Specifically, the BIGL methodology was applied to calculate drug-drug interactions (Van der Borght, K., Tourny, A., Bagdziunas, R. et al. BIGL: Biochemically Intuitive Generalized Loewe null model for prediction of the expected combined effect compatible with partial agonism and antagonism. Sci Rep 7, 17935 (2017); Thas, O., Tourny, A., Verbist, B., Hawinkel, S., Nazarov, M., Mutambanengwe, K., & Bijnens, L. Statistical detection of synergy: new methods and a comparative study. Pharmaceutical Statistics (2021)).
(§6) Synergy matrix results of the BIGL analysis of the cell line data with HSA as mean model calculated on the basis of the cellular metabolic activity using Cell Titer-Glo assay. Bootstrap confidence intervals are indicated. Effect sizes and their confidence intervals are shown. […] No significant average effect if zero is included in the interval.

MV4-11 cells = assay: In vitro proliferation (Cell Titer Glo), Compound 51 with decitabine and venetoclax, MV4-11; assay type: cell-based, human; set-up: key to Synergy/antagonism call (maxR test): no asterisk: absence of any asterisk indicates an additive effect; antagonism is indicated by “*”; synergy is indicated by “**”; Effect size (BIGL, HSA null model): scale not given here
Method: as §1, §2, §3, §4, §5, §6

[1] = Compound 51 0.001 μM, Decitabine 0.0015 μM, Venetoclax 0.0001 μM
[2] = Compound 51 0.001 μM, Decitabine 0.015 μM, Venetoclax 0.001 μM
[3] = Compound 51 0.001 μM, Decitabine 1.5 μM, Venetoclax 0.02 μM
[4] = Compound 51 0.001 μM, Decitabine 3 μM, Venetoclax 0.2 μM
[5] = Compound 51 0.01 μM, Decitabine 0.0015 μM, Venetoclax 0.0001 μM
[6] = Compound 51 0.01 μM, Decitabine 0.015 μM, Venetoclax 0.001 μM
[7] = Compound 51 0.01 μM, Decitabine 1.5 μM, Venetoclax 0.02 μM
[8] = Compound 51 0.01 μM, Decitabine 3 μM, Venetoclax 0.2 μM
[9] = Compound 51 0.05 μM, Decitabine 0.0015 μM, Venetoclax 0.0001 μM
[10] = Compound 51 0.05 μM, Decitabine 0.015 μM, Venetoclax 0.001 μM
[11] = Compound 51 0.05 μM, Decitabine 0.35 μM, Venetoclax 0.002 μM
[12] = Compound 51 0.1 μM, Decitabine 0.015 μM, Venetoclax 0.001 μM
[13] = Compound 51 0.1 μM, Decitabine 0.35 μM, Venetoclax 0.002 μM
[14] = Compound 51 1 μM, Decitabine 0.35 μM, Venetoclax 0.002 μM
[15] = Compound 51 10 μM, Decitabine 0.015 μM, Venetoclax 0.001 μM
[16] = Compound 51 10 μM, Decitabine 0.35 μM, Venetoclax 0.002 μM
[17] = Compound 51 0.01 μM, Decitabine 0.15 μM, Venetoclax 0.002 μM

In the case of `CC(=O)N1CCC(CN2CC[C@@H](Cc3cn(-c4ccc(F)cc4C(=O)N(C)C(C)C)c4cncc(C)c34)C2)CC1` [Compound 51], the “Effect size (BIGL, HSA null model)” value (MOLM-13 cells; [1]) is reported as −0.04, the “Effect size (BIGL, HSA null model)” value (MOLM-13 cells; [2]) is reported as −0.05 and the “Effect size (BIGL, HSA null model)” value (MOLM-13 cells; Compound 51 0.001 μM, Decitabine 0.35 μM, Venetoclax 0.002 μM) is reported as 0.01. The “Effect size (BIGL, HSA null model)” value (MOLM-13 cells; [3]) was −0.04, the “Effect size (BIGL, HSA null model)” value (MOLM-13 cells; [4]) was −0.03 and the “Effect size (BIGL, HSA null model)” value (MOLM-13 cells; [5]) was −0.02. For the same compound, the “Effect size (BIGL, HSA null model)” value (MOLM-13 cells; [6]) was −0.17, the “Effect size (BIGL, HSA null model)” value (MOLM-13 cells; Compound 51 0.01 μM, Decitabine 0.35 μM, Venetoclax 0.002 μM) was −0.1 and the “Effect size (BIGL, HSA null model)” value (MOLM-13 cells; [7]) was −0.05. For the same compound, the “Effect size (BIGL, HSA null model)” value (MOLM-13 cells; [8]) was −0.03, the “Effect size (BIGL, HSA null model)” value (MOLM-13 cells; [9]) was −0.03 and the “Effect size (BIGL, HSA null model)” value (MOLM-13 cells; [10]) was −0.18. For the same compound, the “maxR test call (additive / antagonism / synergy)” value (MOLM-13 cells; [10]) was “**”, the “Effect size (BIGL, HSA null model)” value (MOLM-13 cells; [11]) was −0.25 and the “maxR test call (additive / antagonism / synergy)” value (MOLM-13 cells; [11]) was “**”. The “Effect size (BIGL, HSA null model)” value (MOLM-13 cells; Compound 51 0.05 μM, Decitabine 1.5 μM, Venetoclax 0.02 μM) was −0.05, the “Effect size (BIGL, HSA null model)” value (MOLM-13 cells; Compound 51 0.05 μM, Decitabine 3 μM, Venetoclax 0.2 μM) was −0.03 and the “Effect size (BIGL, HSA null model)” value (MOLM-13 cells; Compound 51 0.1 μM, Decitabine 0.0015 μM, Venetoclax 0.0001 μM) was 0.01. The “Effect size (BIGL, HSA null model)” value (MOLM-13 cells; [12]) was −0.16, the “maxR test call (additive / antagonism / synergy)” value (MOLM-13 cells; [12]) was “**” and the “Effect size (BIGL, HSA null model)” value (MOLM-13 cells; [13]) was −0.27. For the same compound, the “maxR test call (additive / antagonism / synergy)” value (MOLM-13 cells; [13]) was “**”, the “Effect size (BIGL, HSA null model)” value (MOLM-13 cells; Compound 51 0.1 μM, Decitabine 1.5 μM, Venetoclax 0.02 μM) was −0.05 and the “Effect size (BIGL, HSA null model)” value (MOLM-13 cells; Compound 51 0.1 μM, Decitabine 3 μM, Venetoclax 0.2 μM) was −0.03. For the same compound, the “Effect size (BIGL, HSA null model)” value (MOLM-13 cells; Compound 51 1 μM, Decitabine 0.0015 μM, Venetoclax 0.0001 μM) was 0.05, the “Effect size (BIGL, HSA null model)” value (MOLM-13 cells; Compound 51 1 μM, Decitabine 0.015 μM, Venetoclax 0.001 μM) was −0.12 and the “Effect size (BIGL, HSA null model)” value (MOLM-13 cells; [14]) was −0.28. The “maxR test call (additive / antagonism / synergy)” value (MOLM-13 cells; [14]) was “**”, the “Effect size (BIGL, HSA null model)” value (MOLM-13 cells; Compound 51 1 μM, Decitabine 1.5 μM, Venetoclax 0.02 μM) was −0.05 and the “Effect size (BIGL, HSA null model)” value (MOLM-13 cells; Compound 51 1 μM, Decitabine 3 μM, Venetoclax 0.2 μM) was −0.03. The “Effect size (BIGL, HSA null model)” value (MOLM-13 cells; Compound 51 10 μM, Decitabine 0.0015 μM, Venetoclax 0.0001 μM) was −0.05, the “Effect size (BIGL, HSA null model)” value (MOLM-13 cells; [15]) was −0.17 and the “maxR test call (additive / antagonism / synergy)” value (MOLM-13 cells; [15]) was “**”. For the same compound, the “Effect size (BIGL, HSA null model)” value (MOLM-13 cells; [16]) was −0.29, the “maxR test call (additive / antagonism / synergy)” value (MOLM-13 cells; [16]) was “**” and the “Effect size (BIGL, HSA null model)” value (MOLM-13 cells; Compound 51 10 μM, Decitabine 1.5 μM, Venetoclax 0.02 μM) was −0.05. The “Effect size (BIGL, HSA null model)” value (MOLM-13 cells; Compound 51 10 μM, Decitabine 3 μM, Venetoclax 0.2 μM) was −0.03, the “combination effect on proliferation (in words)” value (MOLM-13 cells; pairwise matrix of decitabine and Compound 51 in the presence of Venetoclax, MOLM-13, 6-day CellTiter-Glo) was “synergistically cytotoxic” and the “Effect size (BIGL, HSA null model)” value (MV4-11 cells; [1]) was −0.02. The “Effect size (BIGL, HSA null model)” value (MV4-11 cells; [2]) was −0.05, the “Effect size (BIGL, HSA null model)” value (MV4-11 cells; Compound 51 0.001 μM, Decitabine 0.15 μM, Venetoclax 0.002 μM) was −0.01 and the “Effect size (BIGL, HSA null model)” value (MV4-11 cells; [3]) was −0.08. The “Effect size (BIGL, HSA null model)” value (MV4-11 cells; [4]) was −0.06, the “Effect size (BIGL, HSA null model)” value (MV4-11 cells; [5]) was −0.02 and the “Effect size (BIGL, HSA null model)” value (MV4-11 cells; [6]) was 0.22. For the same compound, the “Synergy/antagonism call (maxR test)” value (MV4-11 cells; [6]) was “**”, the “Effect size (BIGL, HSA null model)” value (MV4-11 cells; [17]) was −0.26 and the “Synergy/antagonism call (maxR test)” value (MV4-11 cells; [17]) was “**”. For the same compound, the “Effect size (BIGL, HSA null model)” value (MV4-11 cells; [7]) was −0.1, the “Synergy/antagonism call (maxR test)” value (MV4-11 cells; [7]) was “**” and the “Effect size (BIGL, HSA null model)” value (MV4-11 cells; [8]) was −0.06. For the same compound, the “Effect size (BIGL, HSA null model)” value (MV4-11 cells; [9]) was 0, the “Effect size (BIGL, HSA null model)” value (MV4-11 cells; [10]) was −0.17 and the “Synergy/antagonism call (maxR test)” value (MV4-11 cells; [10]) was “**”.
